{"source": "paper PMC3057186", "about": "“Identification and characterization of seven new exon 11-associated splice variants of the rat mu opioid receptor gene, OPRM1” (Molecular Pain, 2011)", "assay_in_all_cases": "[3H]DAMGO saturation binding, CHO membranes", "key": {"[1]": {"molecular_target": "T1, rMOR-1i2 (Rattus norvegicus, UniProt B8Q1M0)", "T1 construct": "gene Oprm1; exon 11-associated transcript predicting the same protein as rMOR-1 (AUG in exon 1a)", "T1 sequence (B8Q1M0 1-398)": "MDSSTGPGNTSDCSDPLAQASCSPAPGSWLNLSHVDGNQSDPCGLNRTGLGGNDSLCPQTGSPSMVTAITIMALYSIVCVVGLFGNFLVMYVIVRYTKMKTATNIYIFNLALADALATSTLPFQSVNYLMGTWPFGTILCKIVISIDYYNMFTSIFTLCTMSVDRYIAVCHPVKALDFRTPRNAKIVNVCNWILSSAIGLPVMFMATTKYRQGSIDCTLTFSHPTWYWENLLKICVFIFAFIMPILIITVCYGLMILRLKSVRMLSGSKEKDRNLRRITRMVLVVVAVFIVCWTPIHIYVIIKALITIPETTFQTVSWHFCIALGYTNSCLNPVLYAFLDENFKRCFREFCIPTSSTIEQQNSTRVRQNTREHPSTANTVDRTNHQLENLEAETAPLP"}, "[2]": {"molecular_target": "T2, rMOR-1H1 (Rattus norvegicus, UniProt B8Q1M0)", "T2 construct": "gene Oprm1; exon 11-associated transcript predicting the same protein as rMOR-1 (AUG in exon 1a)", "T2 sequence (B8Q1M0 1-398)": "as above"}, "[3]": {"molecular_target": "T3, rMOR-1H2 (Rattus norvegicus, UniProt D2CKI5)", "T3 construct": "gene Oprm1; 7 TM", "T3 sequence (D2CKI5 1-448)": "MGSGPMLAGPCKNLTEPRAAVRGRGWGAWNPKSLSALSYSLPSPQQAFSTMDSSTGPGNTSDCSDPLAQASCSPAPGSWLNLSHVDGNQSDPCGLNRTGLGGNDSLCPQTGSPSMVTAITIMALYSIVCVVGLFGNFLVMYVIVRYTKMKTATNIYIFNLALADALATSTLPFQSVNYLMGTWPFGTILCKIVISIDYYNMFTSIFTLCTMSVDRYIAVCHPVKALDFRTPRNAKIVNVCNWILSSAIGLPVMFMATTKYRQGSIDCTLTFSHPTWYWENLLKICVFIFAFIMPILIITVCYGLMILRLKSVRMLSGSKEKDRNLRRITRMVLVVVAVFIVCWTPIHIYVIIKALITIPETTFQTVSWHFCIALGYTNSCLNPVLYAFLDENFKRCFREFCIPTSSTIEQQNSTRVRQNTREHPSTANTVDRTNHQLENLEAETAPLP"}}, "data": [{"smiles": "C[C@@H](NC(=O)[C@@H](N)Cc1ccc(O)cc1)C(=O)NCC(=O)N(C)[C@@H](Cc1ccccc1)C(=O)NCCO", "note": "[DAMGO]", "values": [{"measurement": "Kd", "setting": "[1]", "result": "0.36 ± 0.04", "unit": "nM"}, {"measurement": "Kd", "setting": "[2]", "result": "0.51 ± 0.05", "unit": "nM"}, {"measurement": "Kd", "setting": "[3]", "result": "0.37 ± 0.02", "unit": "nM"}]}]}
